Measurements published in patent publication US20140148484A1, “PYRAZOLE COMPOUNDS FOR TREATING HAIRLOSS” (Boehringer Ingelheim International GmbH, priority 2012, published 2014).

Target: T1, human CRTH2 receptor (Homo sapiens, UniProt Q9Y5Y4)
T1 construct: host or cells: CHO-K1 (CHO-K1-hCRTH2 cells); membranes prepared in house from the purchased cell line
T1 sequence (Q9Y5Y4 1-395): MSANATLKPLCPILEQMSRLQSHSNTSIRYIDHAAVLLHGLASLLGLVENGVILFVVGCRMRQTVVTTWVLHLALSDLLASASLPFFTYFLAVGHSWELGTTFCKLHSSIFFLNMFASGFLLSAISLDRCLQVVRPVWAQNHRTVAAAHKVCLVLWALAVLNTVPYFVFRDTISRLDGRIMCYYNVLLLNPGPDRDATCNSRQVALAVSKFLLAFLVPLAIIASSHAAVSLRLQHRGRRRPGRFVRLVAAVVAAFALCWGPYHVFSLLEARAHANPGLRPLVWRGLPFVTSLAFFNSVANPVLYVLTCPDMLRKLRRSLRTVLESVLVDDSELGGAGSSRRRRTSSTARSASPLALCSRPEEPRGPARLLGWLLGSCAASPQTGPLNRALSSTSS
Experiment: Human CRTH2 receptor membrane radioligand binding assay (SPA, [3H]-PGD2)
Settings: displacement of [3H]-PGD2 (1 nM) from CHO-K1-hCRTH2 cell membranes, 3 h room temperature
Description: Preparation of Human CRTH2 Receptor Membranes and Radioligand Binding Assay
The binding of CRTH2 antagonists is determined using membranes prepared from Chinese hamster ovary cells (CHO-K1 cells) transfected with the human CRTH2 receptor (CHO-K1-hCRTH2 cells, Perkin Elmer, Cat No ES-561-C). To produce cell membranes the CHO-K1-hCRTH2 cells are cultured in suspension in CHO SFMII medium supplemented with 400 μg/ml G418. The cells are harvested by centrifugation at 300 g for 10 min at room temperature. The cell pellet is resuspended in Phosphate Buffer Saline (PBS) including a protease inhibitor mix (Complete, Roche) and adjusted to a concentration of 10E7 cells/ml. The CHO-K1-hCRTH2 cells are disrupted by nitrogen […] to obtain the membrane preparation. Cell debris is removed by centrifugation (500 g at 4° C., 30 min) and the supernatant is transferred into fresh tubes followed by a second centrifugation at 40000 g for 1 h at 4° C. to sediment the membranes. The membranes are suspended in SPA incubation buffer (50 mM Tris HCl, 10 mM MgCl2, 150 mM NaCl, 1 mM EDTA, pH 7.4) without bovine serum albumin, homogenized by passing through a single use needle (Terumo, 23G×1″), and stored in aliquots at −80° C.
The CRTH2 receptor binding assay is performed in a scintillation proximity assay (SPA) format with the radioligand [^3H]-PGD2 (Perkin Elmer, NET616000MC). CHO-K1-hCRTH2 cell membranes are again homogenized by passing through a single use needle (Terumo, 23G×1″) and diluted in SPA incubation buffer in suitable concentrations (0.5-10 μg protein/well). The SPA assay is set up in 96 well microtiter plates (Perkin Elmer, CatNo. 6005040) in SPA incubation buffer with a final volume of 200 μl per well and final concentration of 50 mM Tris-HCl, 10 mM MgCl2, 150 mM NaCl, 1 mM EDTA pH 7.4, 0.1% bovine serum albumin). The SPA assay mixture contains 60 μl of the membrane suspension, 80 μl of Wheat Germ Agglutinin coated PVT beads (GE Healthcare, RPNQ-0001, 0.3 mg/well), 40 μl of [3H]-PGD2 diluted in SPA buffer to a final concentration of 1 nM (50 000 dpm) and 20 μl of the test compound (dissolved in dimethylsulfoxid). The SPA assay mixture is incubated for 3 h at room temperature. Bound radioactivity is determined with a scintillation counter (Micro Beta Trilux, Wallac).
The binding of [^3H]-PGD2 to CHO-K1-hCRTH2 cell membranes is determined in the absence (total binding, Bo) and presence (non-specific binding, NSB) of unlabelled PGD2 (1 μM, Cayman Chemical, Cat No 12010) or a reference CRTH2 antagonist (10 μM CAY10471, Cayman Chemical, Cat No 10006735).
Determination of the affinity of a test compound is calculated by subtraction of the non-specific binding (NSB) from the total binding (Bo) or the binding in the presence of the test compound (B) at a given compound concentration. […] The Bo−NSB value is set to 0% inhibition.

| SMILES | Ki |
| --- | --- |
| Cc1c(CC(=O)O)c(C2CCCCC2)nn1Cc1ccc(NC(=O)c2ccc(C(F)(F)F)cc2)cc1 [Example 2.7] | 12.9 nM |
| COc1ccc(C(=O)Nc2ccc(Cn3nc(C)c(CC(=O)O)c3C)cc2)cc1 [Example 1.5] | 12.9 nM |
| Cc1nn(Cc2ccc(NC(=O)C3[C@H]4C[C@@H]5C[C@@H](C[C@H]3C5)C4)cc2)c(C)c1CC(=O)O (some centres unmarked) [Example 1.34] | 4 nM |
| CCc1nn(Cc2ccc(NC(=O)c3ccc(Cl)cc3C)cc2)c(C2CC2)c1CC(=O)O [Example 2.49] | 0.6 nM |
| Cc1nn(Cc2ccc(NCc3ccc(Cl)cc3)cc2)c(C)c1CC(=O)O [Example 6.1] | 438 nM |
| CCc1nn(Cc2ccc(NC(=O)C(C)(C)C)cc2)c(CC)c1CC(=O)O [Example 2.30] | 5.8 nM |
| CCc1nn(Cc2ccc(NC(=O)c3cccc(C)c3CC(C)C)cc2)c(CC)c1CC(=O)O [Example 2.28] | 17.1 nM |
| Cc1nn(Cc2ccc(NC(=O)OCc3ccccc3Cl)cc2)c(C)c1CC(=O)O [Example 3.5] | 16.8 nM |
| CCc1nn(Cc2ccc(NC(=O)c3ccccc3C3CC3)cc2)c(CC)c1CC(=O)O [Example 2.35] | 11.6 nM |
| CCc1nn(Cc2ccc(NC(=O)C3CCCCC3)cc2)c(CC)c1CC(=O)O [Example 2.18] | 2.8 nM |
| Cc1nn(Cc2ccc(NS(=O)(=O)c3ccc(C(F)(F)F)cc3)cc2)c(C)c1CC(=O)O [Example 5.4] | 230 nM |
| Cc1nn(Cc2ccc(NC(=O)OCc3ccccc3)cc2Cl)c(C)c1CC(=O)O [Example 3.13] | 4.7 nM |
| Cc1nn(Cc2ccc(NC(=O)/C=C/c3ccc(Cl)cc3)cc2)c(C)c1CC(=O)O [Example 1.14] | 1.1 nM |
| CCc1nn(Cc2ccc(NC(=O)C3CCCC3)cc2)c(CC)c1CC(=O)O [Example 2.32] | 2.6 nM |
| Cc1nn(Cc2ccc(NC(=O)C3CCC3)cc2)c(C)c1CC(=O)O [Example 1.35] | 44.6 nM |
| Cc1nn(Cc2ccc(NC(=O)C(C)C)cc2)c(C)c1CC(=O)O [Example 1.32] | 32.5 nM |
| Cc1nn(Cc2ccc(NC(=O)OCc3ccccc3)cc2)c(C)c1CC(=O)O [Example 3.1] | 3.8 nM |

Results, then the compound that gave them:

| Ki | SMILES |
| --- | --- |
| 5 nM | CCc1nn(Cc2ccc(OCc3ccc(OC)c(C(F)(F)F)c3)cc2)c(CC)c1CC(=O)O [Example 13.12] |
| 32 nM | CC(C)(C)c1nn(Cc2ccc(C(=O)Nc3ccc(F)c(Cl)c3)cc2)c(C(C)(C)C)c1CC(=O)O [Example 9.15] |
| 125 nM | Cc1nn(Cc2ccc(NC(=O)c3ccc(C(F)(F)F)cc3)cc2)c(C)c1CCC(=O)O [Example 8.2] |
| 0.9 nM | Cc1nn(Cc2ccc(NC(=O)/C=C/c3ccccc3)cc2Cl)c(C)c1CC(=O)O [Example 7.11] |
| 31 nM | Cc1nn(Cc2ccc(C(=O)Nc3cc(Cl)cc(Cl)c3)cc2)c(C)c1CC(=O)O [Example 9.8] |
| 4.3 nM | CCc1nn(C(C)c2ccc(C(=O)Nc3ccc(C(F)(F)F)cc3)cc2)c(CC)c1CC(=O)O (centres unmarked) [Example 17.2] |
| 325 nM | Cc1nn(Cc2ccc(OCc3ccccc3)cc2)c(C)c1CC(=O)O [Example 13.4] |
| 43 nM | Cc1nn(Cc2ccc(COc3ccc(Cl)c(Cl)c3)cc2)c(C)c1CC(=O)O [Example 14.2] |
| 3 nM | Cc1nn(Cc2ccc(C(=O)Nc3ccc(Cl)c(C(F)(F)F)c3)cc2)c(C)c1CC(=O)O [Example 9.6] |
| 785 nM | Cc1nn(Cc2ccc(C(O)Cc3ccccc3)cc2)c(C)c1CC(=O)O (centres unmarked) [Example 15.1] |
| 2.5 nM | Cc1nn(Cc2ccc(NC(=O)CCc3ccccc3)cc2Cl)c(C)c1CC(=O)O [Example 7.9] |
| 0.8 nM | Cc1nn(Cc2ccc(NC(=O)c3ccc(C(F)(F)F)cc3)cc2Cl)c(C)c1CC(=O)O [Example 7.8] |
| 992 nM | Cc1nn(Cc2ccc(CSc3ccc(C(F)(F)F)cc3)cc2)c(C)c1CC(=O)O [Example 16.1] |
| 16.1 nM | CCc1nn(Cc2ccc(S(=O)(=O)Nc3ccc(C)c(Cl)c3)cc2)c(CC)c1CC(=O)O [Example 10.3] |
| 12 nM | Cc1nn(Cc2ccc([S+]([O-])Cc3ccc(Cl)c(Cl)c3)cc2)c(C)c1CC(=O)O (centres unmarked) [Example 19.2] |
